Measured values reported in patent US7988972B2, “Immunoreactive peptides from Epstein-Barr virus” (Ortho-Clinical Diagnostics, Inc., priority 1993, dated 2011).

Columns and labels:
[1] = system: peripheral blood lymphocytes (PBL); experiment: Proliferation assay of peripheral blood lymphocytes (3H-thymidine incorporation); format: cell-based, human; settings: for 3H-thymidine Incorporation (cpm + S.D.) / S.I. (stimulation index): PBL from anti-VCA-positive, anti-EA-positive donor, 5 days
Experimental: Proliferation assays. T-cell proliferation assays using the native p17 or p50 polypeptide or the synthetic peptides were performed as previously described in detail (Pothen et al., Int. J. Cancer, 49:656-660, 1991). Briefly, peripheral blood lymphocytes (PBLO from sero-positive donors were isolated on FICOLL-HYPAQUE gradients, washed and resuspended in RPMI 1640 media containing 10% heat-inactivated human A^+ serum from a sero-negative donor. Cells (1×10^5 per 0.1 ml) were then added to each well in 96-well, round-bottomed tissue culture plates (Costar, Cambridge, Mass.). The different antigen preparations were added to triplicate wells in 0.1 ml volumes and the plates were incubated at 37° C. for 5 days. ^3H-thymidine (5 Ci per mM) was added at a concentration of 1 μCi per well over the last 4 hours of culture. The cells were then harvested with a multichannel sample harvester and ^3H-thymidine incorporation was determined using a Beckman Model LS 3801 liquid scintillation counter. Stimulation indices for the test antigens were calculated by dividing the average counts per minute (CPMO for the test antigens by the average CPM of the medium control wells.
PBL from asymptomatic EBV-infected individuals were tested for response to any of the three p17 synthetic peptides (Table 1) by a proliferation assay using lymphocytes previously shown to proliferate in the presence of native p17 (Pothen et al., Int. J. Cancer, 49:656-660, 1991). Different concentrations of the synthetic peptides were incubated with the PBL for 5 days and then proliferation was assayed by the incorporation of ^3H-thymidine. The native p17 purified from activated P3HR-1 cells gave a S.I. of 15.8 in this experiment. […] Neither of the other synthetic peptides induced a proliferation response at the concentrations tested.
PBL from 3 anti-VCA-positive anti-EA-antibody-negative individuals were also examined in the proliferation assay with the three synthetic peptides. Again, all 3 PBL preparations responded to the highest concentrations of p17.1 with S.I.'s ranging from 3.5-11. Two of the preparations (FIG. 2A,C) also proliferated in the presence of lower concentrations of antigen with S.I.'s of 3 and 5 respectively. […] These experiments established that T-lymphocytes from EBV-infected individuals, irrespective of the presence of antibody to EA, recognized a dominant epitope on p17.

[2] = system: CD8+ T-cell subpopulation; experiment: Proliferation assay with CD8+-enriched T-cell subpopulation; format: cell-based, human
Experimental: PBL enriched for T-cell subpopulations were isolated by depleting a particular population by antibody/complement-mediated cytotoxicity. CD4^+ cells were prepared by lysing CD8^+ cells with anti-CD8 antibody and rabbit complement whereas the CD8^+ T cell subpopulation was enriched by lysing CD4^+ cells with an anti-CD4 antibody and rabbit complement.
PBL were resuspended in RPMI-1640 medium containing 2 mM L-glutamine, 25 mM HEPES, and 10 μg per ml gentamicin (HEPES media) at a concentration of 20×10^6 cells per ml. T cell specific MAb, OKT4 or OKT8 (Ortho Diagnostics Inc.), was added to the cells at the optimal concentration (previously determined by titration to give maximal lysis) and incubated on ice for 30 minutes. The cells were then washed with fresh HEPES media and resuspended at 10×10^6 cells per ml in baby rabbit complement (Pel-Freez Clinical Systems) diluted with the HEPES media to the appropriate concentration (previously assayed to give maximal antibody-specific cytotoxicity). The cells were incubated for 45 minutes in a 37° C. water bath with gentle mixing every 15 minutes. After incubation, the cells were washed thoroughly with the HEPES media and an aliquot (1-2×10^6) of cells was removed and stained for flow cytometric analysis which was performed as described below. […]

ETFTETWNRFITHTE [p17.1, synthetic peptide from 17 Kd early antigen (EA-R) region of EBV]
S.I. ([1]; PBL from 3 anti-VCA-positive anti-EA-antibody-negative individuals, highest concentrations): 3.5-11 | 3H-thymidine Incorporation (cpm + S.D.) ([1]; 3.12 μg/ml): 263 ± 57 cpm | S.I. (stimulation index) ([1]; 3.12 μg/ml): 1.8 | 3H-thymidine Incorporation (cpm + S.D.) ([1]; 12.5 μg/ml): 689 ± 88 cpm | S.I. (stimulation index) ([1]; 12.5 μg/ml): 4.7 | 3H-thymidine Incorporation (cpm + S.D.) ([1]; 50 μg/ml): 1584 ± 37 cpm | S.I. (stimulation index) ([1]; 50 μg/ml): 10.8 | S.I. ([1]; PBL preparation of FIG. 2A (anti-VCA-positive, anti-EA-negative), lower concentrations of antigen): 3 | S.I. ([1]; PBL preparation of FIG. 2C (anti-VCA-positive, anti-EA-negative), lower concentrations of antigen): 5 | proliferation response ([1]; unfractionated PBL of donors A and B, highest concentrations tested (100 μg per ml donor A, 50 μg per ml donor B)): proliferated | proliferation response ([2]; CD8+ subpopulation from donor A): unresponsive | S.I. ([2]; CD8+ subpopulation from donor B, 50 μg per ml): greater than 3
